Source: patent US20050025839A1, “Formulation approach to enhance transporter-mediated drug uptake” (priority 2003, published 2005)

Legend:
[1] = target: T1, hASBT (Homo sapiens, UniProt Q12908); assay: Sodium-enhanced uptake into COS-hASBT cells (FIG. 1); format: cell-based; settings: with vs without sodium
T1 construct: expressed in transfected cells; host or cells: COS cells (COS-hASBT)
T1 sequence (Q12908 1-348): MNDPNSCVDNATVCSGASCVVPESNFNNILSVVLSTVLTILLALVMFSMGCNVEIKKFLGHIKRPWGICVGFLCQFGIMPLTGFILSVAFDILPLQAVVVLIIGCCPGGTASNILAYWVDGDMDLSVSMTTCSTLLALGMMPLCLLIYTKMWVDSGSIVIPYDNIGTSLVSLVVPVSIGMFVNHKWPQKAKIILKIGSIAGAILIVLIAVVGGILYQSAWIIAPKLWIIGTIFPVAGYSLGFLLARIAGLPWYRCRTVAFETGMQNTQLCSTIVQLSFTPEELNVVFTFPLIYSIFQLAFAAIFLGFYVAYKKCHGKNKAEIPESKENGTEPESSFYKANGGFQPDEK
Excerpt: FIG. 1 illustrates how this invention provides for improved uptake of active agent, and specifically the impact of sodium on the uptake of an acyclovir prodrug that utilizes the hASBT transporter, which is a sodium-dependent transporter. […] COS-hASBT cells express hASBT. Acyclovir valylchenodeoxycholate is a prodrug of acyclovir, where acyclovir valylchenodeoxycholate is a substrate for hASBT. Uptake from acyclovir valylchenodeoxycholate prodrug and uptake from acyclovir are shown as closed bar and open bar, respectively. […] Error bars represent SEM's.

[2] = prodrug vs acyclovir, refs (9,10); cited from earlier work

Effect of sodium on uptake into COS-hASBT cells [1] | SMILES | in vivo oral acyclovir bioavailability [2]
did not enhance | Nc1nc2c(ncn2COCCO)c(=O)[nH]1 [acyclovir, reference compound] | 
enhanced by sodium | CC(C)[C@H](NC(=O)CC[C@@H](C)[C@H]1CC[C@H]2[C@@H]3[C@H](O)C[C@@H]4C[C@H](O)CC[C@]4(C)[C@H]3CC[C@]12C)C(=O)OCCOCn1cnc2c(=O)[nH]c(N)nc21 [acyclovir valylchenodeoxycholate] | enhance in vivo oral acyclovir bioavailability
